In data set [1] the test system is strains of C. saccharoperbutylacetonium. Particulars: Keis et al, 2001; cited from earlier work.
A short description of data set [2]: Liquid-liquid extraction with corn oil (Karr extractor). The class given is physicochemical. How it is done:
Two runs were conducted, each with a different flow rate.

Data set [3] concerns C. saccharoperbutylacetonium N1-504. Particulars: cited from earlier work.
The next data set deals with Novel organism. Description: Carbohydrate utilization screen. The data set is classed as cell-based, Clostridium beijerinckii sp. optinoii. From the text:
A full carbohydrate screen was run to test whether the organism is actually N1-504. […] Rather it falls closer to (but is not identical with) C. beijerinckii.

Data set [4] deals with C. saccharoperbutylacetonium. Particulars: reported (Keis et al.); cited from earlier work.
Another data set concerns bacterial cells. Particulars: cited from earlier work.

`O=C[C@@H](O)[C@H](O)[C@H](O)CO` [Arabinose]: the “Carbohydrate utilization, strains of C. saccharoperbutylacetonium generally” value (“Carbohydrate utilization, strains” below) in data set [1] is given as “will utilize”.

With `O=C[C@H](O)[C@@H](O)[C@H](O[C@@H]1O[C@H](CO)[C@@H](O)[C@H](O)[C@H]1O)[C@H](O)CO` [Cellobiose], in data set [1], the “Carbohydrate utilization, strains” value is “will utilize”.

Consider `CC(C)O` [Isopropanol, isopropanol], for which, in data set [2] (flow rate feed 26 ml/min), the “% extraction, Run 1” value is on record as 23.0%. For the same compound, in data set [2] (flow rate feed 39 ml/min), the “% extraction, Run 2” value was 21.5%. In data set [2] (summary comment), the “extraction in this set up” value was “about 21%”.

`OC[C@@H](O)[C@@H](O)[C@H](O)[C@@H](O)CO` [Sorbitol]: in data set [3], the “Carbohydrate utilization, C. saccharoperbutylacetonium N1-504” value is “will not utilize”.

Take `O=C[C@H](O)[C@@H](O)[C@H](O)CO` [Xylose]: the “Carbohydrate utilization, strains” value in data set [1] is given as “will utilize”. In the data set on Novel organism, the “Carbohydrate utilization, Novel organism” value is “does not grow”.

As to `OC[C@@H](O)[C@H](O)[C@H](O)[C@@H](O)CO` [dulcitol], the “Carbohydrate utilization, C. saccharoperbutylacetonium N1-504” value in data set [3] is on record as “will not utilize”.

As for `O[C@H]1[C@H](O)[C@@H](O)[C@H](O)[C@@H](O)[C@H]1O` [inositol], the “Carbohydrate utilization, C. saccharoperbutylacetonium N1-504” value in data set [3] is “will not utilize”.

Consider `OC[C@H]1O[C@@H](O[C@H]2[C@H](O)[C@@H](O)C(O)O[C@@H]2CO)[C@H](O)[C@@H](O)[C@H]1O` (stereo partly drawn) [lactose], for which, in data set [1], the “Carbohydrate utilization, strains” value was “will utilize”.

Regarding `OC[C@H]1O[C@H](O[C@H]2[C@H](O)[C@@H](O)[C@H](O)O[C@@H]2CO)[C@H](O)[C@@H](O)[C@@H]1O` [maltose], the “Carbohydrate utilization, strains” value in data set [1] is listed as “will utilize”.

Turning to `CO[C@H]1/C=C/O[C@@]2(C)Oc3c(C)c(O)c4c(O)c(c(/C=N/N5CCN(C)CC5)c(O)c4c3C2=O)NC(=O)/C(C)=C\C=C\[C@H](C)[C@H](O)[C@@H](C)[C@@H](O)[C@@H](C)[C@H](OC(C)=O)[C@@H]1C` [rifampin], the “resistance / inhibition of the organism” value in data set [4] is recorded as “resistant”.

For `OC[C@H]1O[C@@](CO)(O[C@H]2O[C@H](CO)[C@@H](O)[C@H](O)[C@H]2O)[C@@H](O)[C@@H]1O` [sucrose], in data set [1], the “Carbohydrate utilization, strains” value is reported as “will utilize”.

For the compound dextrin, the “Carbohydrate utilization, strains” value in data set [1] is “will utilize”.

In the case of glycogen, in data set [1], the “Carbohydrate utilization, strains” value was “will utilize”.

Take inulin: the “Carbohydrate utilization, strains” value in data set [1] was “will utilize”.

With n-butanol, in the data set on bacterial cells ([…] butanol), the inhibits growth is roughly 100%. In the data set with bacterial cells (butanol at a concentration of 1 percent), the “inhibits cell growth and fermentation” value is recorded as “about 20%”.

Regarding pectin, the “Carbohydrate utilization, strains” value in data set [1] is reported as “will utilize”.

Take starch: the “Carbohydrate utilization, strains” value in data set [1] is recorded as “will utilize”.

The record behind these values is patent US20130149757A1 (OPTINOL, INC., priority 2011, published 2013).
